Like-named read-outs stand apart in the source and are kept apart here.

The target in this assay is PRPK/TPRKB complex (also PRPK/PRPKB; PRPK aka TP53RK) (Homo sapiens, UniProt Q96S44). Briefly: ITC. It is filed as binding.
PRPK/TPRKB complex (also PRPK/PRPKB; PRPK aka TP53RK), sequence (Q96S44 whole entry, other chains not shown): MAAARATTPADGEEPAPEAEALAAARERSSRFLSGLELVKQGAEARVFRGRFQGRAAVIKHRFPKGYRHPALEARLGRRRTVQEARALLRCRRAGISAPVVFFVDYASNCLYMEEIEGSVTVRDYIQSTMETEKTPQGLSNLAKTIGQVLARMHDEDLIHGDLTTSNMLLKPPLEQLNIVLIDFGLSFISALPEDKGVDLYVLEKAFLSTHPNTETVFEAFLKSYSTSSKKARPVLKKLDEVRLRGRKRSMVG

For orientation: Kd means the equilibrium constant for the complex coming apart. A low value points to a tighter complex. As to `Nc1ccc2c(c1)C(=O)N(C1CCC(=O)NC1=O)C2=O` (centres unmarked) [Compound2, 5-amino-2-(2,6-dioxopiperidin-3-yl)isoindoline-1,3-dione], the Kd turned out to be 6.1 ± 0.5 µM.
`C[C@@]1(N2C(=O)c3cccc(O)c3C2=O)CCC(=O)NC1=O` [DB-A5, (R)-4-hydroxy-2-(3-methyl-2,6-dioxopiperidin-3-yl)isoindoline-1,3-dione] registered a Kd (pH […] °C, […] DMSO, crystal structure solved here, ATP site) of 1.8 ± 0.4 µM.
Consider `COc1cccc2c1C(=O)N([C@]1(C)CCC(=O)NC1=O)C2=O` [DB-A5-OMe, (R)-4-methoxy-2-(3-methyl-2,6-dioxopiperidin-3-yl)isoindoline-1,3-dione], for which the Kd is above 1000 µM.
Regarding `C[C@]1(N2C(=O)c3cccc(O)c3C2=O)CCC(=O)NC1=O` [DB-B5, (S)-4-hydroxy-2-(3-methyl-2,6-dioxopiperidin-3-yl)isoindoline-1,3-dione], for the setting “pH […] °C, […] DMSO”, the affinity, expressed as Kd, was 27 µM.
Compound `O=C1CCC(N2C(=O)c3cccc(O)c3C2=O)C(=O)N1` (centres unmarked) [TXM-01-027-1, 2-(2,6-dioxopiperidin-3-yl)-4-hydroxyisoindoline-1,3-dione] had a Kd of 2.2 µM.

These data come from article doi:10.1101/2021.11.30.469594v1 (biorxiv, 2021).
